The text below walks through data of patent US20100068816A1, “Genetically engineered herbicide resistance for maintaining axenic cultures” (TransAlgae Ltd, priority 2008, published 2010).

The subject of data set [1] is wild type algae and the cyanobacteria. The data set is described as follows: Effect of microtubule-inhibiting herbicides on wild type algae and cyanobacteria. The method, then:
(§1) To quantify CO2 effects on plankton survivorship we incubate 81 L vessels of the algae Pavlova lutheri, Isochrysis CS-177, Nannochloropsis oculata CS-179, Nannochloropsis like CS-246, Nannochloropsis salina CS-190, Tetraselmis suecica, Tetraselmis chuii and Nannochloris sp or cyanobacteria Synechococcus PCC7002, Synechococcus WH-7803, Thermosynechococcus elongatus BP-1 with or without zooplankton (e.g. Arthemia sp.). The control and zooplankton treated containers are bubbled with air, 1%, 5% and 14% CO2 together with specific herbicides that are applied at the appropriate concentrations. Algal cell density and zooplankton counts are done on each treatment over a 10 day period. Throughout the experiment pH is maintained at 7.0-8.0, which allows phytoplankton growth.

Data set [2] relates to zooplankton (e.g. Arthemia sp.). Put plainly: Zooplankton survivorship under CO2 and herbicide treatment. Conditions: microtubule-inhibiting herbicides. It is filed as in vivo. The method, then: as §1
Data set [3] relates to wild type culture. Put plainly: Slow released herbicide embedded in photobioreactor lining: wild type culture. The class given is cell-based. The conditions noted are these: herbicide on inner side of photobioreactor, final concentration 10^−5 to 10^−7M if fully released. The text has this: (§2) A hydrophobic herbicide/biocide such as flurochloridone or fluridone and/or butafenacil flumioxazin is/are applied using a volatile organic solvent such as xylene on the inner side of the polyethylene algae photobioreactor or pond liner, such that if it were fully released into the subsequent growth medium the concentration would reach a final concentration of 10^−5 to 10^−7M. Transgenically resistant algae or cyanobacteria versus wild-type are inoculated in the treated photobioreactors after the solvent has evaporated. In commercial production, the herbicides can be added during production of the polyethyelene.
(§3) Culture aliquots are removed daily and cell densities of wild types and the transformed algae or cyanobacteria are compared.

Data set [4] has as its system wild-type algae. Put plainly: Butafenacil dose response on wild type algae and cyanobacteria (FIG. 11). The class given is cell-based. Conditions: 10^−6M or 10^−7M. The method, then:
FIG. 11 A Chemical structure of butafenacil. B. Butafenacil dose response on wild type algae and cyanobacteria. Strains were cultured at OD648=0.1 in 24 well plate and butafencil was applied at concentrations of 10^−5,6,7M. After a week OD648 of the cultures was measured.
Cells are allowed to generate to visible colonies. After incubation for a week the most resistant colonies are chosen. To ascertain gene transformation PCR analysis is preformed on wild type and butafenacil or flumioxazin resistant colonies.

Data set [5] deals with ppo transformant algae. The data set is described as follows: Dose response of ppo transformants versus wild type alga. The conditions noted are these: 0.1 μM, 0.3 μM, 0.5 μM in 24 well plates. It is filed as cell-based. As to the method: A dose response curve is generated for the wild type alga and for the transformants. The wild types and the transformant algae are plated in their medium in 24 well plates with increasing concentrations of 0.1 μM, 0.3 μM, 0.5 μM butafenacil or flumioxazin. Algae are plated without the herbicide as a control. […] The most resistant colonies are chosen for further analysis.

In data set [6] the test system is resistant pds transformed algae. Put plainly: Slow released herbicide embedded in photobioreactor lining: resistant transformed algae. The class given is cell-based. The conditions noted are these: herbicide on inner side of photobioreactor, final concentration 10^−5 to 10^−7M if fully released.
Source text: as §2, §3

For data set [7], the system named is Synechococcus PCC7002 and Synechococcus WH7803. Put plainly: Mixed culture of ppo transformed algae and cyanobacteria contaminants, with and without herbicide. The class given is cell-based. The conditions noted are these: mixed culture 10:1 transformant:cyanobacteria, one week liquid culture. As to the method: To address the question of contaminants, the transformed algae are mixed with cyanobacteria such as Synechococcus PCC7002 and Synechococcus WH7803, which are known to overtake ponds. The transformant and the cyanobacteria are cultured alone and in mixed cultures with and without butafenacil or flumioxazin. The mixed culture is plated in a ratio of 10:1 transformant: cyanobacteria respectively. The cells are allowed to grow for one week in liquid culture, with daily removal of aliquots. These aliquots are counted under the microscope and the ratio of contaminants vs. algae is calculated.

Data set [8] concerns Chlamydomonas pds transformants. The data set is described as follows: Contamination test: Chlamydomonas pds transformant alone and in mixed culture, with and without flurochloridone. The conditions noted are these: flurochloridone addition; liquid medium, one week, daily counts under the microscope; mixed culture 10:1. The class given is cell-based, Chlamydomonas reinhardtii. An excerpt:
(§4) FIGS. 8A and B: Contamination test of Chlamydomonas pds transformant II5 versus the cyanobacterium Synechococcus PCC 7942. Chlamydomonas transformants and the cyanobacterium Synechococcus PCC7942 were inoculated alone and in mixed culture in a ratio of 10:1 with and without flurochloridone. Aliquots were removed daily and counted under the microscope. 8A represents the Chlamydomonas pds transformants counts and 8B represents the cyanobacterium Synechococcus PCC7942 counts.
(§5) To address the question of contaminants, the Chlamydomonas pds transformants were mixed with the cyanobacterium Synechococcus PCC7942, which is known to overtake ponds. A Chlamydomonas pds transformant and the cyanobacterium Synechococcus PCC7942 were inoculated alone and in mixed cultures with and without flurochloridone. The mixed culture was inoculated in a ratio of 10:1 Chlamydomonas pds transformants: Synechococcus PCC7942 wild type, respectively. The cells were allowed to grow for one week in liquid medium, with daily removal of aliquots. Contaminants versus target Chlamydomonas-cells were counted under the microscope (FIG. 8).

Data set [9] has as its system Synechococcus PCC7942. Put plainly: Contamination test: Synechococcus PCC7942 alone and in mixed culture, with and without flurochloridone. It is filed as cell-based. The conditions noted are these: flurochloridone addition; liquid medium, one week, daily counts under the microscope; mixed culture 10:1.
Source text: as §4, §5

Data set [10] concerns Nannochloropsis cells transformed with pSI103-PDS. The data set is described as follows: Cross resistance of Nannochloropsis cells transformed with pSI103-PDS. It is filed as cell-based, Nannochloropsis oculata. Conditions: Nannochloropsis transformants selected on ASW + 1 μM flurochloridone. As to the method:
FIG. 3. Nannochloropsis cells were transformed with the pSI103-PDS construct (right panel) as well as control cells which were not transformed with DNA (left panel) plated on artificial sea water (ASW)+1 μM flurochloridone.
Nannochloropsis oculata CS179 cells were transformed with the PSI103-PDS construct using the ECM 830 electroporator (BTX Instrument Division, Harvard Apparatus, Inc., Holliston, Mass., USA) as described above. After transformation algae were plated on ASW+F/2 media (http://www.marine.csiro.au/microalgae/methods/) containing 10^−7M flurochloridone. After two weeks, algal colonies both from the transformation and the mock were replated on ASW+10^−6M flurochloridone plates. This allowed differentiation between false positives and true resistant clones (FIG. 3). This material was used in Example 4.

Data set [11] concerns Hydrilla verticillata. The conditions noted are these: cited from earlier work.

For the compound `COP(=S)(NC(C)C)Oc1ccc(C)cc1[N+](=O)[O-]` (stereo not shown) [amiprophos-methyl], the “effect on wild type algae and cyanobacteria” value in data set [1] is given as “do not harm”. In data set [2], the effect on zooplankton result is listed as “killed”.
For `CCCCN(CC)c1c([N+](=O)[O-])cc(C(F)(F)F)cc1[N+](=O)[O-]` [benefin] the same measures were “do not harm” and “killed”.
For `C=CCOC(=O)C(C)(C)OC(=O)c1cc(-n2c(=O)cc(C(F)(F)F)n(C)c2=O)ccc1Cl` [butafenacil], in data set [3], the “growth of the wild type culture” value is on record as “completely inhibited”. Further, the wild-type algae growth result in [4] is recorded as “inhibit”. Moreover, the “growth of transformants bearing the resistance gene in dose response” value in data set [5] is listed as “ability to grow at higher concentrations than the wild type”. Besides, the “growth of the resistant pds transformed algae” value in data set [6] was “unaffected”. Besides, the “contaminants in mixed cultures containing the herbicide” value in data set [7] is “decreasing numbers of contaminants”.
For the compound `CCOP(=S)(NC(C)CC)Oc1cc(C)ccc1[N+](=O)[O-]` (stereo not shown) [butamiphos], the “effect on wild type algae and cyanobacteria” value in data set [1] was “do not harm”. The effect on zooplankton entry in data set [2] is given as “killed”.
For `CCC(C)Nc1c([N+](=O)[O-])cc(C(C)(C)C)cc1[N+](=O)[O-]` (stereo not shown) [butralin] the same measures were “do not harm” and “killed”.
On the same counts, the results for `COC(=O)c1c(Cl)c(Cl)c(C(=O)OC)c(Cl)c1Cl` [chlorthal-dimethyl] are “do not harm” and “killed”.
Regarding `CCN(CC)c1c([N+](=O)[O-])cc(C(F)(F)F)c(N)c1[N+](=O)[O-]` [dinitramine], in data set [1], the “effect on wild type algae and cyanobacteria” value is recorded as “do not harm”. For the same compound, the effect on zooplankton entry in data set [2] was “killed”.
For `CSC(=O)c1c(C(F)F)nc(C(F)(F)F)c(C(=O)SC)c1CC(C)C` [dithiopyr] the same measures were “do not harm” and “killed”.
On the same counts, the results for `C=C(C)CN(CC)c1c([N+](=O)[O-])cc(C(F)(F)F)cc1[N+](=O)[O-]` [ethalfluralin] are “do not harm” and “killed”.
For the compound `C#CCN1C(=O)COc2cc(F)c(N3C(=O)C4=C(CCCC4)C3=O)cc21` [flumioxazin], the “growth of the wild type culture” value in data set [3] is given as “completely inhibited”. Further, in data set [4], the wild-type algae growth entry is “inhibit”. Also, the “growth of transformants bearing the resistance gene in dose response” value in data set [5] is given as “ability to grow at higher concentrations than the wild type”. In addition, the “growth of the resistant pds transformed algae” value in [6] was “unaffected”. In addition, in [7], the “contaminants in mixed cultures containing the herbicide” value was “decreasing numbers of contaminants”.
Turning to `O=C1C(Cl)C(CCl)CN1c1cccc(C(F)(F)F)c1` (stereo not shown) [flurochloridone], the “growth of the wild type culture” value in data set [3] is “completely inhibited”. Besides, in [8], the “growth of the resistant pds Chlamydomonas cells” value was “unaffected”. In addition, in [6], the “growth of the resistant pds transformed algae” value is on record as “unaffected”. Also, the “growth of Synechococcus PCC7942 cells” value in data set [9] was “completely inhibited”.
Regarding `CNc1cnn(-c2cccc(C(F)(F)F)c2)c(=O)c1Cl` [norflurazon], the “cross resistance of the flurochloridone resistant material” value (“cross resistance” for short) in data set [10] is reported as “cross resistant”.
Turning to `CCC(CC)Nc1c([N+](=O)[O-])cc(C)c(C)c1[N+](=O)[O-]` [pendimethalin], the “effect on wild type algae and cyanobacteria” value in data set [1] was “do not harm”. Further, the effect on zooplankton entry in data set [2] is on record as “killed”.
`O=C(Nc1ccc(F)cc1)c1cccc(Oc2cccc(C(F)(F)F)c2)n1` [picolinafen]: in data set [10], the “cross resistance” value is given as “cross resistant”.
For `C#CC(C)(C)NC(=O)c1cc(Cl)cc(Cl)c1` [propyzamide], in [1], the “effect on wild type algae and cyanobacteria” value is recorded as “do not harm”. Moreover, in data set [2], the effect on zooplankton result is on record as “killed”.
As to `CC(C)N(Cc1ccccc1)C(=O)C(C)(C)C` [tebutam], in [1], the “effect on wild type algae and cyanobacteria” value is recorded as “do not harm”. Also, in data set [2], the effect on zooplankton result was “killed”.
For `COC(=O)c1c(C(F)F)nc(C(F)(F)F)c(C2=NCCS2)c1CC(C)C` [thiazopyr] the same measures were “do not harm” and “killed”.
As to `CCCN(CCC)c1c([N+](=O)[O-])cc(C(F)(F)F)cc1[N+](=O)[O-]` [trifluralin], the “effect on wild type algae and cyanobacteria” value in data set [1] was “do not harm”. The effect on zooplankton result in [2] is on record as “killed”.
In the case of fluridone, the “growth of the wild type culture” value in data set [3] is recorded as “completely inhibited”. Moreover, in data set [11] (fluridone resistant biotypes), the “biomass accumulation, of the content in untreated plants” value is on record as “up to 72%” and the “β-carotene accumulation, of the content in untreated plants” value is on record as ≤ 77%. Also, in [11] (susceptible population), the “biomass accumulation, of the levels found in untreated plants” value was 10% and the “β-carotene accumulation, of the levels found in untreated plants” value was 10%. For the same compound, in data set [10], the “cross resistance” value is on record as “cross resistant”. In data set [6], the “growth of the resistant pds transformed algae” value is reported as “unaffected”.
